Laboratory results reported in US10646477B1, “5-substituted 2,4-thiazolidinediones (thiohydantoins), pseudothiohydantoins, and propseudothiohydantoins for use as antiviral agents” (Jiva Pharma, Inc., priority 2015, dated 2020).
pEC50: −log10 of the molar value. In brackets after ≈: the same amount, converted by molar mass. Read-outs that look alike come from different tables or passages of the source. Each block holds one molecule with its values, some of them ahead of it.

Experiments:
VZV = experiment: CellTiter-Glo (Cytopathic effect/Toxicity) antiviral assay, U of Alabama / NIH; type: cell-based, Varicella zoster virus; conditions: for activity against the Varicella-Zoster virus: primary assays at the NIH
Description: (§1) General Outline of in vitro biology Study: The overall goal of this study was to perform a preliminary evaluation of gross toxicity as well as antiviral effectiveness against HSV-1 and HSV-2, and VZV virus of several pharmaceutical preparations. The HSV-1 and HSV-2 antiviral activity in an in vitro infection system was studied, at the Louisiana State University, Health Sciences System, in New Orleans, and all three above at the University of Alabama, NIAID sponsored laboratories.

HSV-1 = experiment: as above; type: cell-based, Herpes simplex virus type 1
Description: as §1

HSV-2 [1] = experiment: as above; type: cell-based, Herpes simplex virus type 2
Description: as §1

HSV-1 McKrae = experiment: McKrae viral yield reduction assay relative to mock treated controls, LSU; type: cell-based, Herpes simplex virus type 1
Description: as §1
(§2) The yield reduction assay (YRA) was used in determining antiviral activity of test compounds such as JIVA Compounds, controls and standards. The virus yield reduction assay is a powerful technique for evaluating the efficacy of antiviral compounds. Monolayer cultures of mammalian cells were grown in 96-well microliter tissue culture plates and infected with virus. Test compounds were added and serially diluted directly with the plates. Following a cycle of virus replication, culture lysates were made and serially diluted in a separate set of uninfected cultures grown in microliter plates. The cultures were incubated, plaques were enumerated in wells containing […] plaques, and virus titers were calculated.

HSV-2 [2] = experiment: Viral yield reduction assay relative to mock treated controls, LSU; type: cell-based, Herpes simplex virus type 2
Description: as §1, §2

[3] = Gross visible toxicity (CC50), 48 hour continuous treatment, LSU; type: cell-based; conditions: African green monkey, Vero cell monolayers, tested at L (LSU-HSC)
Description: as §1

[4] = CellTiter-Glo toxicity (CC50), U of Alabama / NIH
Vero cell monolayers = experiment: Gross visible toxicity (CC50), 48 hour continuous treatment, LSU; type: cell-based; conditions: tested at L (LSU-HSC)
Description: as §1

HSV-2 [5] = experiment: Plaque reduction and virus yield reduction assay (FIGS. 1-6); type: cell-based, Herpes simplex virus type 2; set-up: Mean virus titer: unit not given here
Procedure: as §2
(§3) The concentrations were done in duplicate ranging from 1 mM to 10 mM and the average value is plotted for each concentration. At 2 days post infection the number of plaques were counted. The next day, the wells were collected (media and cells) and titered in a plaque assay.

cells = experiment: Toxicity to the cells seen in the plaque reduction assay (FIG. 1); type: cell-based
Procedure: as §3
FIG. 1: Both Compound 2 (JIVA-0042) and Compound 3 (JIVA-005) appeared to show toxicity at 10 mM, so even if the graphs show almost 100% reduction at this concentration, it is due to toxicity, perhaps cytostatic inhibition of the cells and thus very few or small plaques were observed. However, by 5 mM of Compound 2 (JIVA-0042), the cells look good (no toxicity) and >95% plaque reduction for Compound 2 and a 50% reduction for Compound 3 (JIVA-005), with the plaques still smaller than the control no drug plaques.

HSV-2 [6] = experiment: In vitro HSV-2 tests using published formulations of 1-docosanol with surfactants; type: cell-based, Herpes simplex virus type 2; conditions: published formulations with various surfactants
Description: The alcohol intermediate, cis,cis,cis,cis,cis,cis-4,7,10,13,16,19-docosahexaenoic-1-ol obtained by reduction of DHA in the above series has the same chain-length as 1-docasonol, but has six conjugated-cis-double bonds for a stiff, elongated backbone, in contrast to a floppy backbone in saturated 1-docasanol.

[7] = cited from earlier work
[8] = system: cold sores caused by the herpes simplex virus; conditions: OTC cream; cited from earlier work
HSV-2 [9] = experiment: Viral yield reduction assay (YRA), Cincinnati Children's Hospital Medical Center; type: cell-based, Herpes simplex virus type 2
Procedure: as §2
(§4) Another advantage was noted of thiazolidinedione compounds in Formula (I) where R is H, and R1 is an omega-3 PUFA derivative derived from DHA, EPA or ALA were provided to the Cincinnati Children's Hospital Medical Center, for in vitro HSV-2 antiviral activity by the viral yield reduction assay method, (YRA). […] For the DHA derived (JIVA-004), a ^˜44% reduction in virus yield was detected at 0.1 mM, and 22% reduction was detected at 0.01 mM. […] The more water soluble sodium salt of JIVA-004, in the YRA method, was toxic at the highest concentrations tested (10 mM to 7.5 mM).

healthy cells = type: cell-based
Procedure: as §4

Aqueous solubility = type: physicochemical; conditions: water; at 3° C.
[10] = Human alphaherpesvirus 1, HSV-1, tested at A (U of Alabama), read-out: EC50
[11] = Human alphaherpesvirus 2, HSV-2, tested at A (U of Alabama), read-out: EC50
[12] = Human alphaherpesvirus 1, HSV-1, tested at L (LSU-HSC), read-out: EC50
[13] = Human alphaherpesvirus 2, HSV-2, tested at L (LSU-HSC), read-out: EC50
[14] = CC50, HSV-1 line, tested at A (U of Alabama)
[15] = CC50, HSV-2 line, tested at A (U of Alabama)
[16] = CC50, VZV line, tested at A (U of Alabama)
[17] = VZV, tested at A (U of Alabama), read-out: EC50
[18] = HSV-1, tested at L (LSU-HSC), read-out: EC50
[19] = HSV-2, tested at L (LSU-HSC), read-out: EC50
[20] = 10 mM, said to be due to toxicity
[21] = VZV line, tested at A (U of Alabama)

melting point: 178 °C
Compound: N=C(N)SC(F)C(=O)O (centres unmarked) [JIVA-0043, RS-(Carbamimidoylsulfanyl)(fluoro)acetic acid]
pEC50 (VZV; Human alphaherpesvirus 3, VZV, tested at A (U of Alabama), read-out: EC50): > 7.30 | activity against the Varicella-Zoster virus (VZV): highly active | pEC50 (HSV-1; [10]): < 3.82 | pEC50 (HSV-2 [1]; [11]): < 3.82 | pEC50 (HSV-1 McKrae; [12]): < 3.82 | pEC50 (HSV-2 [2]; [13]): < 3.82 | CC50 at 48 h ([3]; HSV-1 line): ~1 mM | CC50 at 48 h ([3]; HSV-2 line): > 1 mM | CC50 [4, 14]: > 150 µM | CC50 [4, 15]: > 150 µM | CC50 [4, 16]: > 150 µM

Compound: CN(C)C(=N)NC(=N)N.O=C1CSC(=O)N1 [JIVA-005]
pEC50 (VZV; [17]): 7.05 | activity against the Varicella-Zoster virus (VZV): highly active | pEC50 (HSV-1; HSV-1, tested at A (U of Alabama), read-out: EC50): < 3.82 | pEC50 (HSV-2 [1]; HSV-2, tested at A (U of Alabama), read-out: EC50): < 3.82 | pEC50 (HSV-1 McKrae; [18]): ~3.20 | pEC50 (HSV-2 [2]; [19]): ~3.15 | CC50 (Vero cell monolayers; HSV-2 line): > 10 mM | Mean virus titer (HSV-2 [5]; 1 mM): 6.24 | Mean virus titer (HSV-2 [5]; 2.5 mM): 5.90 | reduction in virus yield (HSV-2 [5]; 2.5 mM): very little reduction | Mean virus titer (HSV-2 [5]; 5 mM): 4.92 | plaque reduction (HSV-2 [5]; 5 mM): 50% | Mean virus titer (HSV-2 [5]; 7.5 mM): 3.86 | Mean virus titer (HSV-2 [5]; 10 mM): 2.87 | plaque reduction (HSV-2 [5]; [20]): ~100% | pEC50 (HSV-2 [5]; Excel, best fit line (FIGS. 4 and 5), read-out: estimated EC50): ~2.40 | pEC50 (HSV-2 [5]; Prism program (FIG. 6), read-out: calculated EC50): 2.30 | toxicity (cells; 10 mM): toxicity | CC50 ([4]; HSV-1 line, tested at A (U of Alabama)): > 150 µM | CC50 ([4]; HSV-2 line, tested at A (U of Alabama)): > 150 µM | CC50 [4, 21]: > 150 µM

melting point: 230 °C (dec.)
Compound: N=C(N)SC(C(=O)O)c1ccccc1 (centres unmarked) [JIVA-0045, RS-2-[Amino(imino)methylsulfenyl]-2-phenylacetic acid]
pEC50 (HSV-1; [10]): < 3.82 | pEC50 (HSV-2 [1]; [11]): < 3.82 | pEC50 (HSV-1 McKrae; [12]): 3.62 | pEC50 (HSV-2 [2]; [13]): ~3.12 | CC50 at 48 h ([3]; HSV-1 line): 3.6 mM | CC50 at 48 h ([3]; HSV-2 line): 3.6 mM | CC50 [4, 14]: > 150 µM | CC50 [4, 15]: > 150 µM

Compound: CCCCCCCCCCCCCCCCCCCCCCO [1-docosanol, 1-Docosanol]
antiviral activity (HSV-2 [6]): ineffective | aqueous solubility [7]: near zero | mean time of healing [8]: 4.1 days

Compound: CN(C)C(=N)NC(=N)N.N=C1NC(=O)CS1 [JIVA-0049, Pseudothiohydantain Metforminate]
pEC50 (VZV; [17]): > 7.30 | activity against the Varicella-Zoster virus (VZV): highly active | pEC50 (HSV-1; HSV-1, tested at N (NIH), read-out: EC50): < 3.52 | CC50 ([4]; HSV-1 line, tested at N (NIH)): > 300 µM | CC50 [4, 21]: ≥ 150 µM

melting point: 224 to 228 °C (dec.)
Compound: CC1SC(=N)NC1=O (centres unmarked) [JIVA-0044, RS-2-Imino-5-methylthiazolidine-4-one]
pEC50 (HSV-1; [10]): < 3.82 | pEC50 (HSV-2 [1]; [11]): < 3.82 | pEC50 (HSV-1 McKrae; [12]): 2.85 | pEC50 (HSV-2 [2]; [13]): 2.85 | CC50 at 48 h ([3]; HSV-1 line): > 39 mM | CC50 at 48 h ([3]; HSV-2 line): > 39 mM | CC50 [4, 14]: > 150 µM | CC50 [4, 15]: > 150 µM

Compound: CC/C=C\C/C=C\C/C=C\C/C=C\C/C=C\C/C=C\CCCC1SC(=O)NC1=O (centres unmarked) [JIVA-004, RS-5-((4Z,7Z,10Z,13Z,16Z,19Z)docosa-4,7,10,13,16,19-hexaen-1-yl)thiazolidine-2,4-dione]
reduction in virus yield (HSV-2 [9]; 0.01 mM): 22% | reduction in virus yield (HSV-2 [9]; 0.1 mM): ~44% | conservative estimated toxicity index CC50 (healthy cells): 0.3 mM

Compound: CC/C=C\C/C=C\C/C=C\C/C=C\C/C=C\C/C=C\CCCO [DHA derived primary alcohol, cis,cis,cis,cis,cis,cis-4,7,10,13,16,19-docosahexaenoic-1-ol]
antiviral activity (HSV-2 [6]): ineffective

Compound: CN(C)C(=N)NC(=N)N.Cl [Met.HCl, 1,1-dimethylbiguanide hydrochloride, reference compound]
Mean virus titer (HSV-2 [5]; 1 mM): 5.98 | Mean virus titer (HSV-2 [5]; 2.5 mM): 6.05 | Mean virus titer (HSV-2 [5]; 5 mM): 5.76 | Mean virus titer (HSV-2 [5]; 7.5 mM): 4.97 | Mean virus titer (HSV-2 [5]; 10 mM): 4.32 | pEC50 (HSV-2 [5]; Human alphaherpesvirus 2, read-out: estimated EC50): ~2.30

Compound: NC1=NC(=O)CS1 [JIVA-0048, Pseudothiohydantoin]
pEC50 (HSV-1 McKrae; [18]): 3.53 | pEC50 (HSV-2 [2]; [19]): 4.12 | CC50 (Vero cell monolayers; HSV-1 line): 19.4 mM | CC50 (Vero cell monolayers; HSV-2 line): 19.4 mM

Compound: O=C1CSC(=O)N1 [JIVA-0042, 2,4-Thiazolidinedione]
pEC50 (VZV; Human alphaherpesvirus 3): < 4.52 | pEC50 (HSV-1; Human alphaherpesvirus 1): < 3.82 | pEC50 (HSV-2 [1]; Human alphaherpesvirus 2): < 3.82 | pEC50 (HSV-1 McKrae; Human alphaherpesvirus 1): ~3.20 | pEC50 (HSV-2 [2]; Human alphaherpesvirus 2): 2.73 | CC50 at 48 h ([3]; HSV-1 line): > 14 mM | CC50 at 48 h ([3]; HSV-2 line): > 14 mM | antiviral effect (HSV-2 [5]; 1 mM): no antiviral effect | reduction in virus yield (HSV-2 [5]; 2.5 mM): 30% | plaque reduction (HSV-2 [5]; 5 mM): > 95% | plaque reduction (HSV-2 [5]; [20]): ~100% | pEC50 (HSV-2 [5]; Human alphaherpesvirus 2, read-out: calculated EC50): 2.53 | inhibition at 5000 µM (HSV-2 [5]; Human alphaherpesvirus 2, read-out: inhibition that can be contributed to Compound 2 activity): ~45% | toxicity (cells; 5 mM): no toxicity | toxicity (cells; 10 mM): toxicity | solubility (Aqueous solubility): 30 mg/mL (≈ 256 mM) | CC50 [4, 14]: > 150 µM | CC50 [4, 15]: > 150 µM | CC50 [4, 16]: 80 µM

melting point: 244 to 246 °C
Compound: N=C1NC(=O)C(c2ccccc2Cl)S1 (centres unmarked) [JIVA-0046, RS-2-Imino-5-(2′-chlorophenyl) thiazolidine-4-one]
pEC50 (HSV-1; [10]): < 3.82 | pEC50 (HSV-2 [1]; [11]): < 3.82 | pEC50 (HSV-1 McKrae; [12]): 2.70 | pEC50 (HSV-2 [2]; [13]): ~3.00 | CC50 at 48 h ([3]; HSV-1 line): ~1 mM | CC50 at 48 h ([3]; HSV-2 line): ~1 mM | CC50 [4, 14]: > 150 µM | CC50 [4, 15]: > 150 µM
